Test results: patent US20240327364A1, “THERAPEUTIC TARGETING OF GPR68 TO INDUCE FERROPTOSIS” (University Of Maryland, Baltimore, priority 2023, published 2024)

Legend:
GPR68 = GPR68 (Homo sapiens, UniProt Q15743); assay: SRE-luciferase assay, GPR68-transfected HEK293 cells; format: cell-based; conditions: 10 μM OGM2
Method: 12-well plates of cells were transfected with 1 μg DNA using Lipofectamine 3000 with sre:luciferase and either the vector backbone, GFP, GPR68, GPR68-GFP, GPR4, or 336X-GFP. After 3 days, these cells were then lysed, and cell extracts were subjected to Steady-Glo luciferase assay (Promega™) according to the manufacturer's instructions. The results were normalized to cell titer, as determined using Cell Titer-Glo luminescence assay (Promega™). For some procedure, the cells were treated in serum-free medium, and were lysed on the third day.
Because GPR4, the paralog with highest homology with GPR68, was not covered in the initial GPCR profiling, whether OGM2 could inhibit GPR4 was tested by examining the effects of OGM2 on acid-induced serum responsive element (SRE) luciferase activity in HEK293 cells transfected with either GPR4 or GPR68. Mild acidification increased luciferase activity in GPR4 and GPR68 transfected cells above that of vector control.
Cas9^GPR68=GPR68 targeted sgRNA and Cas9; CTL=control; MoGPR68=GPR68 morpholino treatment. […] These cells were exposed to acidic media and assayed for luciferase activity as a readout of the receptor activity.

HEK293 = assay: Liperfluo lipid peroxidation, HEK293; format: cell-based, human
Method: Cells were plated on a 100 mm cell culture dish (CELLTREAT Scientific Products) in 10 mls of DMEM with high glucose, GlutaMAX, HEPES, Penicillin-Streptomycin (ThermoFisher™) and 10% FBS. Cells were incubated overnight at 37° C. in 5% CO2. Media were then replaced with […] fresh media with DMSO, OGM2, or Erastin (APExBIO Technology™) and the cells incubated for 3 days. On the third day, 3 mL fresh media with 2.5 μM Liperfluo™ (Dojindo Molecular Technologies™, Inc.) resuspended in DMSO was added and cells were incubated at 37° C. in 5% CO2 for 1 hour. Cells were subsequently trypsinized for 5 minutes, pelleted by centrifugation, and resuspended in cell sorting media (1% BSA and 1 mM EDTA in PBS pH 7.4). Ten thousand events were recorded on a BD LSR II and the data processed using the FlowJo™ software.

U87 glioblastoma cells = assay: Acid-induced calcium flux in U87 cells; format: cell-based, human; conditions: medium shifted from pH 7.8 to 6.4
From the text: GPR68 is known to signal through Gq which results in a calcium flux out of the Endoplasmic reticulum. U87 glioblastoma cells were stained, using a calcium-sensitive vital dye Fluo-8, and stimulated with acidification of the media to pH6.4. The cells respond to the acidification with a burst of calcium release, this is inhibited by OGM2.
To determine if GBM cells respond to their own acidic extracellular milieu as a form of autocrine signaling, calcium release in response to acidification was measured. GPR68 is known to couple to the Gq subunit, which acts to release calcium from the ER in a PLC dependent pathway. The medium was shifted from pH 7.8 to 6.4, which triggered a rapid and robust calcium flux, as measured by the fluorescence intensity of calcium-sensitive dye Cal520-AM. This calcium flux was blocked by OGM2 and PLC inhibitor U73122. FIG. 50A, FIG. 50B, FIG. 50C and FIG. 50D.

V2 = biological target: T1, V2 (Homo sapiens, UniProt P30518); assay: GPCR Profiler; format: cell-based
T1 construct: host or cells: Chem-1 cells expressing Galpha15

CSNK1E = CSNK1E (Homo sapiens, UniProt P49674); assay: KinomeScan; format: binding; conditions: read-out: % Control
EPHB6 = biological target: T2, EPHB6 (Homo sapiens, UniProt O15197); assay: KinomeScan; format: binding; conditions: read-out: % Control
T2 construct: purchased DiscoveRx (Fremont, CA)

PIK3CA(H1047L) = biological target: T3, PIK3CA(H1047L) (Homo sapiens, UniProt P42336, H1047L); assay: KinomeScan; format: binding; conditions: read-out: % Control
T3 construct: purchased DiscoveRx (Fremont, CA)

CysLT2 = biological target: T4, CysLT2 (Homo sapiens, UniProt Q9NS75); assay: GPCR Profiler; format: cell-based
T4 construct: host or cells: Chem-1 cells with Gα15

P2Y12 = biological target: T5, P2Y12 (Homo sapiens, UniProt Q9H244); assay: GPCR Profiler; format: cell-based
T5 construct: host or cells: Chem-1 cells expressing Gα15

S1P4 = biological target: T6, S1P4 (Homo sapiens, UniProt O95977); assay: GPCR Profiler; format: cell-based
T6 construct: host or cells: Chem-1 cells with Gα15

TLK1 = biological target: T7, TLK1 (Homo sapiens, UniProt Q9UKI8); assay: KinomeScan; format: binding; conditions: read-out: % Control
T7 construct: purchased DiscoveRx (Fremont, CA)

RET(V804L) = biological target: T8, RET(V804L) (Homo sapiens, UniProt P07949, V804L); assay: KinomeScan; format: binding; conditions: read-out: % Control
T8 construct: purchased DiscoveRx (Fremont, CA)

HPK1 = biological target: T9, HPK1 (Homo sapiens, UniProt Q92918); assay: KinomeScan; format: binding; conditions: read-out: % Control
T9 construct: purchased DiscoveRx (Fremont, CA)

p38-gamma = biological target: T10, p38-gamma (Homo sapiens, UniProt P53778); assay: KinomeScan; format: binding; conditions: read-out: % Control
T10 construct: purchased DiscoveRx

DDR2 = biological target: T11, DDR2 (Homo sapiens, UniProt Q16832); assay: KinomeScan; format: binding; conditions: read-out: % Control
T11 construct: purchased DiscoveRx (Fremont, CA), KinomeScan service

MYLK = biological target: T12, MYLK (Homo sapiens, UniProt Q15746); assay: KinomeScan; format: binding; conditions: read-out: % Control
T12 construct: purchased DiscoveRx

[1] = biological target: T13, JAK3(JH1domain-catalytic) (Homo sapiens, UniProt P52333); assay: KinomeScan; format: binding; conditions: read-out: % Control
T13 construct: JAK3(JH1domain-catalytic); purchased DiscoveRx (Fremont, CA)

MST3 = biological target: T14, MST3 (Homo sapiens, UniProt Q9Y6E0); assay: KinomeScan; format: binding; conditions: read-out: % Control
T14 construct: purchased DiscoveRx

VEGFR2 = biological target: T15, VEGFR2 (Homo sapiens, UniProt P35968); assay: KinomeScan; format: binding; conditions: read-out: % Control
T15 construct: purchased DiscoveRx

TRPM6 = biological target: T16, TRPM6 (Homo sapiens, UniProt Q9BX84); assay: KinomeScan; format: binding; conditions: read-out: % Control
T16 construct: purchased DiscoveRx (Fremont, CA)

CSNK1D = CSNK1D (Homo sapiens, UniProt P48730); assay: KinomeScan; format: binding; conditions: read-out: % Control
TNIK = biological target: T17, TNIK (Homo sapiens, UniProt Q9UKE5); assay: KinomeScan; format: binding; conditions: read-out: % Control
T17 construct: purchased DiscoveRx (Fremont, CA)

T4 sequence (Q9NS75 whole entry, species assumed): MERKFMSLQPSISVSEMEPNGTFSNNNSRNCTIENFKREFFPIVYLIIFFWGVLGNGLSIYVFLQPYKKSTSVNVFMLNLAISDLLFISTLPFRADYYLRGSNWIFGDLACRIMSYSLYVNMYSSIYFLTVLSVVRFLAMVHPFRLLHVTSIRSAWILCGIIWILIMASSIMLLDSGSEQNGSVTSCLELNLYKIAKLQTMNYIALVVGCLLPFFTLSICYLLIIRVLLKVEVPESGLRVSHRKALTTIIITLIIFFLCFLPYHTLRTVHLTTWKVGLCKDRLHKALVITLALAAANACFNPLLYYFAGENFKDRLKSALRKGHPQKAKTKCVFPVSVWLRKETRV
T6 sequence (O95977 whole entry, species assumed): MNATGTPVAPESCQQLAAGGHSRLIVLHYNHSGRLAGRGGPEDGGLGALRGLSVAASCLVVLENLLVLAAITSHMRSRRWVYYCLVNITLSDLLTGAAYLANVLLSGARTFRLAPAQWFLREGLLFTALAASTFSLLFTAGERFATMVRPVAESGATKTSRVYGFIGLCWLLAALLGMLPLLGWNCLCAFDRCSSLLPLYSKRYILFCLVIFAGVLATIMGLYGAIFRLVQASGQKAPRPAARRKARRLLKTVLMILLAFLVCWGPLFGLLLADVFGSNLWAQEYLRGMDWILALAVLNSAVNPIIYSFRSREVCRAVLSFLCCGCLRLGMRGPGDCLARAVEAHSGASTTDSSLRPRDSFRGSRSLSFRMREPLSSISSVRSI
T5 sequence (Q9H244 whole entry, species assumed): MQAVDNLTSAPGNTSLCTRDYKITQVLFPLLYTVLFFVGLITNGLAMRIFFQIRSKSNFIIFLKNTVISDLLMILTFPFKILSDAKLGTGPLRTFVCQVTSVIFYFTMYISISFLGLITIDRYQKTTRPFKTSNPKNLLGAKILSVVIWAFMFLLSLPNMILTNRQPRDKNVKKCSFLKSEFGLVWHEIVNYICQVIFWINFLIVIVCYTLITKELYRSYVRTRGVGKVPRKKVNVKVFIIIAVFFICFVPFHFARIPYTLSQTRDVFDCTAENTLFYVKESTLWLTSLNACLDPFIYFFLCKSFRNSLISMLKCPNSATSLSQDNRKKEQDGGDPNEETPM
T1 sequence (P30518 whole entry): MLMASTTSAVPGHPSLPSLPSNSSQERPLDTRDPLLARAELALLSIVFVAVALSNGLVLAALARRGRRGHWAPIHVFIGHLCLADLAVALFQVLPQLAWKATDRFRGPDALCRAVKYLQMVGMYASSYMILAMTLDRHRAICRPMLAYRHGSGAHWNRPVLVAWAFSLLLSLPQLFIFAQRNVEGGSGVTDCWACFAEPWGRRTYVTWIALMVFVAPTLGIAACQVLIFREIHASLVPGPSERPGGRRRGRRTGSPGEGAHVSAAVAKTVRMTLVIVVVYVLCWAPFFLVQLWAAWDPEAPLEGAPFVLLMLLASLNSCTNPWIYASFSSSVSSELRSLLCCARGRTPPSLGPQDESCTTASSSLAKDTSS
T12 sequence (Q15746 whole entry): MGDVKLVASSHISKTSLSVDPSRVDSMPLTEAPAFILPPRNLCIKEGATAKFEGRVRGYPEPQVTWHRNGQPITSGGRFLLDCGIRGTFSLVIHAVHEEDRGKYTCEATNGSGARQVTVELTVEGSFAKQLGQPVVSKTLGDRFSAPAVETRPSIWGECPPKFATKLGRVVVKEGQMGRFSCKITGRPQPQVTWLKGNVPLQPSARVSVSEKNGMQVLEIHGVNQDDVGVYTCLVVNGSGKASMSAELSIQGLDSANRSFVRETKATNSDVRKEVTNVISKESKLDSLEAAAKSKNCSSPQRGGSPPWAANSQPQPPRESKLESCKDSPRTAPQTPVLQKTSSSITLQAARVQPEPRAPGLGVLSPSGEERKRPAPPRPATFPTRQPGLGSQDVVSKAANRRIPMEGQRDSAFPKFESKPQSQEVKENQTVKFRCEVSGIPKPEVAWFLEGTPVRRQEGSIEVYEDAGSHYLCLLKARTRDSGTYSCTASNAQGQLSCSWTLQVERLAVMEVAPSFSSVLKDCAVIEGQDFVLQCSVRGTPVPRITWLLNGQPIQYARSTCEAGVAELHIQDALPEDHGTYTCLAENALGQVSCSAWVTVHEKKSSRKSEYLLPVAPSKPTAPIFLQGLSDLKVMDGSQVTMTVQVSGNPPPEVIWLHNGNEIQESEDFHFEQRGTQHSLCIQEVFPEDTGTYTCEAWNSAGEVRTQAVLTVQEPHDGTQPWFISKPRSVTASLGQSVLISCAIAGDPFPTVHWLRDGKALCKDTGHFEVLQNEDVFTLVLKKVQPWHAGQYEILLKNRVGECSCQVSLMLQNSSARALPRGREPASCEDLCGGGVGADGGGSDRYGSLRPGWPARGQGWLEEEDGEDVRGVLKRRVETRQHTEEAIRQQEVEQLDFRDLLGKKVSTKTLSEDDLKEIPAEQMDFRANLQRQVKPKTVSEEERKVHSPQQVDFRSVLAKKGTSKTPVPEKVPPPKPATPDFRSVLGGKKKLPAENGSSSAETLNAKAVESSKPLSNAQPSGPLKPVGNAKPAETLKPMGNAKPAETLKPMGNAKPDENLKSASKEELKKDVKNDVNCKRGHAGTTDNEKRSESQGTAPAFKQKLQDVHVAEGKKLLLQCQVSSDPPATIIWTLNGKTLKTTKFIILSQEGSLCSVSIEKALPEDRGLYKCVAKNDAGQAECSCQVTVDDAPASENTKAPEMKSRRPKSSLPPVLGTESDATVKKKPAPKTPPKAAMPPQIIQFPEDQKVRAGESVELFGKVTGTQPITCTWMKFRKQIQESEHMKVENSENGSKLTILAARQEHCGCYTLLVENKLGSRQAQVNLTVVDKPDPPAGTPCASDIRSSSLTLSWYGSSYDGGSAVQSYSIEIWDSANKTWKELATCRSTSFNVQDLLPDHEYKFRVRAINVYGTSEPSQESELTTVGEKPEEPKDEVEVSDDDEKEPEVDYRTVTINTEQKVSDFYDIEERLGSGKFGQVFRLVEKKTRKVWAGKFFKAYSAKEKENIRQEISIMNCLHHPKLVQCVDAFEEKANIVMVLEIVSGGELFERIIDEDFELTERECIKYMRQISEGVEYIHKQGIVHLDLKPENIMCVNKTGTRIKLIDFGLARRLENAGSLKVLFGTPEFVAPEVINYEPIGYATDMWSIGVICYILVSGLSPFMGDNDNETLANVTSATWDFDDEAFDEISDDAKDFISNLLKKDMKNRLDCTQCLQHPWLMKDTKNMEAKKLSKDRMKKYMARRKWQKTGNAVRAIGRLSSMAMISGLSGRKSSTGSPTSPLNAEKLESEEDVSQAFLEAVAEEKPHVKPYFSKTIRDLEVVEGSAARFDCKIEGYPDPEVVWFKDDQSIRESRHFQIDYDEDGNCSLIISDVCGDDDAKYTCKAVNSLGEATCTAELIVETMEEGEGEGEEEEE
T14 sequence (Q9Y6E0 whole entry): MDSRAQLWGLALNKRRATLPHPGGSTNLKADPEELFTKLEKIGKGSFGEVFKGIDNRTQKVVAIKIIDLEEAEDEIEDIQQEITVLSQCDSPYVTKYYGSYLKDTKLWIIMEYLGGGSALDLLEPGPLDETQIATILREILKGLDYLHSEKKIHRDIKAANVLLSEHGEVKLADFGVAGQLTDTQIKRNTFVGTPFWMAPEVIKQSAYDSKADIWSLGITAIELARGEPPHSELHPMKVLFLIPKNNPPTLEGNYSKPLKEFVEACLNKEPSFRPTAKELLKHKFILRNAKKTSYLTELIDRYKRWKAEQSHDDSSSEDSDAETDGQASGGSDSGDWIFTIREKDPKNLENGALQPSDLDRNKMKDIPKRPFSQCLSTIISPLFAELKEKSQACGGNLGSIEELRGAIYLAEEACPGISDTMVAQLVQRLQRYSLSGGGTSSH
T9 sequence (Q92918 whole entry): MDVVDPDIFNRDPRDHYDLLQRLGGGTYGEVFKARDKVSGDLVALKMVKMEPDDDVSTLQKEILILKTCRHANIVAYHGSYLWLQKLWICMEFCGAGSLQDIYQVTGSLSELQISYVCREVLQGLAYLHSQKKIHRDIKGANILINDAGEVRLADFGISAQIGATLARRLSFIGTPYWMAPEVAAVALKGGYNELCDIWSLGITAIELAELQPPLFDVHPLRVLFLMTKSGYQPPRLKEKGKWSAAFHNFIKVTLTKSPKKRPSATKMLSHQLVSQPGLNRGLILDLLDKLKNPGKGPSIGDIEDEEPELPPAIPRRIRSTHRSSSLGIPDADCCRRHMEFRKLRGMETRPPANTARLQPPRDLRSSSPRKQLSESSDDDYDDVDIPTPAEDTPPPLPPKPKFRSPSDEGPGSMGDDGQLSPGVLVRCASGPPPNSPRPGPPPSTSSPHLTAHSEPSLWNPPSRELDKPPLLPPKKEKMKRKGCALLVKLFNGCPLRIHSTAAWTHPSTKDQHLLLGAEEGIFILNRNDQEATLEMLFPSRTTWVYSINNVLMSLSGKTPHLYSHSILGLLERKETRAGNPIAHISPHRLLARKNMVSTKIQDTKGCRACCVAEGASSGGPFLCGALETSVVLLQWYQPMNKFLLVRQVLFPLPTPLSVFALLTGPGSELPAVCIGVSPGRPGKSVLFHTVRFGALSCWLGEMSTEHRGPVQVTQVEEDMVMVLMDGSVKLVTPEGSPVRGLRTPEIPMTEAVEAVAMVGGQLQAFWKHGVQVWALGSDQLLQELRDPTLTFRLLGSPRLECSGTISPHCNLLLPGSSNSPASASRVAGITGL
T10 sequence (P53778 whole entry): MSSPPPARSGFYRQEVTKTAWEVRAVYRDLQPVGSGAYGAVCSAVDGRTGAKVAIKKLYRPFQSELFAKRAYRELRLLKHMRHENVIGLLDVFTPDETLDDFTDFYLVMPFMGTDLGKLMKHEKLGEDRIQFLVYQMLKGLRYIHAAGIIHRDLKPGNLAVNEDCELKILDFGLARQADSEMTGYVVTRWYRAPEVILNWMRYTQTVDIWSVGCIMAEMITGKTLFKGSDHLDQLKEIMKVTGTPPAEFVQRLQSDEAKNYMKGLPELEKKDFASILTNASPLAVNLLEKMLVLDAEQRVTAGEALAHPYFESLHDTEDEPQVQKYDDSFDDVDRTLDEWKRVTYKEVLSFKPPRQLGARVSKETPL

Structure (SMILES): CCc1ccc2c(c1)C1(NN=C(c3ccccc3)S1)C(=O)N2 (centres unmarked) [OGM2]
- acid-induced SRE-luciferase activity (GPR68): completely inhibited the signal
- lipid peroxidation (HEK293): did not induce lipid peroxidation
- acid-induced calcium flux (U87 glioblastoma cells): blocked

Structure (SMILES): CCc1ccc2c(c1)C1(NN=C(c3cccc4ccccc34)S1)C(=O)N2 (centres unmarked) [OGM1, 5-ethyl-5′-naphthalen-1-ylspiro[1H-indole-3,2′-3H-1,3,4-thiadiazole]-2-one]
- Antagonism (V2; 10 uM): 2.9
- Agonism (V2; 12.5 uM): 0.6
- remaining binding at 10 µM (CSNK1E): 91%
- remaining binding at 10 µM (EPHB6): 76%
- remaining binding at 10 µM (PIK3CA(H1047L)): 100%
- Antagonism (CysLT2; 10 uM): −7.1
- Agonism (CysLT2; 12.5 uM): −0.3
- Antagonism (P2Y12; 10 uM): −0.3
- Agonism (P2Y12; 12.5 uM): 1
- Antagonism (S1P4; 10 uM): −5.2
- Agonism (S1P4; 12.5 uM): 0.3
- remaining binding at 10 µM (TLK1): 53%
- remaining binding at 10 µM (RET(V804L)): 90%
- remaining binding at 10 µM (HPK1): 100%
- remaining binding at 10 µM (p38-gamma): 94%
- remaining binding at 10 µM (DDR2): 86%
- remaining binding at 10 µM (MYLK): 91%
- remaining binding at 10 µM [1]: 84%
- remaining binding at 10 µM (MST3): 61%
- remaining binding at 10 µM (VEGFR2): 100%
- remaining binding at 10 µM (TRPM6): 80%
- remaining binding at 10 µM (CSNK1D): 100%
- remaining binding at 10 µM (TNIK): 71%
